Patent US12213482B2, “Fungicide enhancers effective for treating plants infected with fungal pathogens” (Board of Regents, The University of Texas System, priority 2015, dated 2025)

Columns and labels:
[1] = system: Septoria tritici isolate G3-03; assay: Fungicide sensitivity testing by OD in 96 well plates, fungicides plus Enhancer A.I.1; type: cell-based
[2] = system: Mycosphaerella graminicola isolate FLU4-02; assay: Fungicide sensitivity testing by OD in 96 well plates, epoxiconazole plus enhancers; type: cell-based; details: Zymoseptoria tritici, Enhancer Concentration 0 μg ml^−1 (epoxiconazole alone; one value per enhancer series)
[3] = Enhancer A.I.1 Concentration 0 μg ml^−1
[4] = Enhancer A.I.1 Concentration 0.003 μg ml^−1
[5] = Enhancer A.I.1 Concentration 0.016 μg ml^−1
[6] = Enhancer A.I.1 Concentration 0.08 μg ml^−1
[7] = Enhancer A.I.1 Concentration 0.4 μg ml^−1
[8] = Enhancer A.I.1 Concentration 2.0 μg ml^−1
[9] = Enhancer A.I.1 Concentration 10 μg ml^−1

SMILES | EC50 of the fungicide [1, 3] [µg/mL] | EC50 of the fungicide [1, 4] [µg/mL] | EC50 of the fungicide [1, 5] [µg/mL] | EC50 of the fungicide [1, 6] [µg/mL] | EC50 of the fungicide [1, 7] [µg/mL] | EC50 of the fungicide [1, 8] [µg/mL] | EC50 of the fungicide [1, 9] [µg/mL] | EC50 [2] [µg/mL]
CO/C=C(/C(=O)OC)c1ccccc1Oc1cc(Oc2ccccc2C#N)ncn1 [Azoxystrobin] | 7.210 | 7.339 | 7.071 | 6.914 | 6.958 | 5.157 | 2.816 | 
Fc1ccc([C@]2(Cn3cncn3)O[C@H]2c2ccccc2Cl)cc1 (racemic) [Epoxiconazole] | 0.142 | 0.142 | 0.141 | 0.145 | 0.06 | 0.008 | 0.004 | 0.091
Cc1cc(C2CC2)nc(Nc2ccccc2)n1 [Cyprodinil] | 3.055 | 3.135 | 2.995 | 2.838 | 3.244 | 4.046 | 4.220 | 
COC(=O)Nc1nc2ccccc2[nH]1 [Carbendazim] | >50 | >50 | >50 | >50 | >50 | >50 | >50 | 
N#Cc1c(Cl)c(Cl)c(Cl)c(C#N)c1Cl [Chlorothalonil] | 0.370 | 0.369 | 0.357 | 0.369 | 0.335 | 0.36 | 0.364 | 
